Results published in US4258199A, “Method for preparing cyclic ethers and thioethers including oxygen isomers and sulfur analogs of prostacyclin” (Research Corporation, priority 1978, dated 1981).
Counter-ions that a name gives are not always drawn.

What was measured:
[1] = half-life in saline / stability in solution (Table 1); type: physicochemical; details: 250° C. (so in the source); for half-life: read-out: t 1/2 saline
Description: The removal of the protecting groups R^1, R^2 and R^3 from the resulting products of the oxidation, i.e, the allylic oxygen cyclic ethers or sulfones or the vinylic sulfoxides, or sulfones, can be carried out with acid or base or sequentially with both, if necessary, and yields prostacyclin isomers and analogs. A particularly useful prostacyclin sulfur analog, 6,9α-thiaprostacyclin ester can be obtained by reducing a 6,9α-sulfoxaprostacyclin ester--obtained as described supra--with a reducing agent such as trimethylsilyliodide.

[2] = test system: human and rabbit citrated platelet-rich plasma; assay: platelet aggregation, citrated platelet-rich plasma in a chronolog aggregometer (agonistic and antagonistic activity vs ADP); type: cell-based; details: 20 mM and 2 μM (so in the source), inhibition of aggregation by 2 μM ADP, or antagonism of 5 mM prostacyclin
Protocol: Effects of prostacyclin analogs on platelet aggregation was evaluated using human and rabbit citrated platelet-rich plasma in a chronolog aggregometer at […]. Each of the analogs was tested at two concentrations (20 mM and 2 μM) for agonistic activity (inhibition of aggregation induced by 2 μM ADP) and antagonistic activity (prevention of the inhibition of ADP-induced aggregation by 5 mM prostacyclin).

cat coronary artery = assay: isolated perfused cat coronary artery, perfusion pressure; details: isolated perfused cat right coronary artery, 37° C., change in perfusion pressure
Protocol: Effects of prostacyclin analogs on isolated perfused cat coronary arteries were measured as follows.
Cats of either sex (2.5-3.5 kg) were anesthetized with sodium pentobarbital (30 mg/kg) given intravenously. Hearts were rapidly excised and placed in oxygenated (95% O2 +5% CO2) ice-cold Krebs-Henseleit (K-H) solution of the following millimolar composition: NaCl, 118; KCl, 4.75; CaCl2.H2 O, 2.54; KH2 PO4, 1.19; MgSO4.7H2 O, 1.19; NaHCO3, 12.5; glucose, 10.00. A 20-gauge stainless steel cannula was inserted into the right coronary artery via the coronary ostium. Distal to the cannula, approximately 1 cm of coronary artery was dissected free of surrounding tissue. The section of right coronary artery with the cannula in place was excised from the heart and immediately transferred to a constant flow perfusion apparatus.
The perfusion apparatus consists of a reservoir containing 20 ml of warm (37° C.) oxygenated (95% O2 +5% CO2) K-H solution which bathes the coronary artery and serves as recirculating perfusate. An increase in perfusion pressure indicates vasoconstriction, whereas a decrease in perfusion pressure signifies vasodilation. Following an initial 1 hr. equilibrium period, vascular responsiveness was established by adding 25 mM KCl. After washing with fresh K-H solution for 20-30 mins., the preparation achieved a relatively constant low basal tone. Basal perfusion pressure averaged 50±2.5 mm Hg. Fresh K-H dilutions of stock prostacyclin analog concentrations were added to the perfusate reservoir in 0.1-0.2 ml volumes. Changes in perfusion pressure in response to prostacyclin analog addition generally plateaus within 5 mins. of administration.

[3] = stability of the sodium salt in solution (preparative examples); type: physicochemical; details: sodium salt after hydrolysis with NaOH in 90% ethanol
Protocol: Acidification of this compound in aqueous solutions leads to the corresponding acid which can be extracted with ether and purified chromatographically.
The critical intermediate for this synthesis is 11,15-diol, 5-phenylseleno,6,9α-thiaprostacyclin methyl ester IV (R^1 =--CH3, R^2 =R^3 =H, Z=--S--). The preparation of this intermediate is described in Example 10a. When this intermediate was oxidized with 3.3 equivalents of m-chloroperbenzoic acid in methylene chloride -78°→20° C. for 24 hours, the 6,9α-sulfoprostacyclin methyl ester IX was produced in 85% yield (IX, R^1 =--CH3, R^2 =R^3 =H, n=2). It was isolated by prep layer chromatography and hydrolyzed with NaOH in 90% ethanol at 25° C. to afford the corresponding sodium salt IX.

[4] = solubility (analytical data of methyl ester); type: physicochemical
[5] = background statement; cited from earlier work

Row | Compound | t 1/2 saline [1] | half-life [1] | Biological Activity: Platelet Aggregation [2] | Biological Activity: Cat Coronary Artery (cat coronary artery) | further results
1 | CCCCCC(O)/C=C/C1C(O)CC2OC(/C=C/CCC(=O)O)CC21 (stereo not drawn) [4(E)-9-deoxy-6,9α-epoxy-Δ^4 -isoprostacyclin(6α)] | > 3 h | – | Antagonist | Constrictor | –
2 | CCCCCC(O)/C=C/C1C(O)CC2OC(/C=C/CCC(=O)O)CC21 (stereo not drawn) [4(E)-9-deoxy-6,9α-epoxy-Δ^4 -isoprostacyclin(6β)] | > 3 h | – | Inhibitor(P) | Constrictor(P) | –
3 | CCCCC[C@H](O)/C=C/[C@@H]1[C@H]2C/C(=C/CCCC(=O)O)S(=O)(=O)[C@H]2C[C@H]1O [5(Z)-6,9α-sulfoprostacyclin sodium salt] | – | – | – | – | stability of sodium salt in solution [3]: quantitatively stable in aqueous solution
4 | CCCCC[C@H](O)/C=C/[C@@H]1[C@H]2C/C(=C/CCCC(=O)O)[S+]([O-])[C@H]2C[C@H]1O (stereo partly drawn) [5(Z)-6,9α-sulfoxaprostacyclin sodium salt] | – | – | – | – | stability of sodium salt in solution [3]: stable solution
5 | CCCCC[C@H](O)/C=C/[C@@H]1[C@H]2CC(/C=C/CCC(=O)OC)S(=O)(=O)[C@H]2C[C@H]1O (stereo partly shown) [6,9-sulfo-4(E) is oprostacyclin methyl ester] | – | – | – | – | solubility [4]: CH2 Cl2 and common organic solvents
6 | CCCCC[C@H](O)/C=C/[C@@H]1[C@H]2C/C(=C/CCCC(=O)OC)S(=O)(=O)[C@H]2C[C@H]1O [6,9α-sulfoprostacyclin methyl ester] | – | – | – | – | solubility [4]: common organic solvents
7 | CCCCC[C@H](O)/C=C/[C@@H]1[C@H]2C/C(=C/CCCC(=O)O)O[C@H]2C[C@H]1O [Natural Prostacyclin, 6,9α-oxido-11α,15α-dihydroxyprosta-(Z)5, (E)13-dienoic acid, reference compound] | – | – | Inhibitor(P) | Dilator(P) | biological half-life [5]: 2 minutes

Further lines, with some results ahead:

Row | t 1/2 saline [1] | half-life [1] | Compound | Biological Activity: Platelet Aggregation [2] | Biological Activity: Cat Coronary Artery (cat coronary artery) | further results
8 | > 24 h | – | 6,9-sulfo-4(E)isoprostacyclin, 6αisomer | Inhibitor | Constrictor(M) | –
9 | > 24 h | – | 6,9-sulfo-4(E)isoprostacyclin, 6βisomer | Antagonist | Constrictor | –
10 | – | > 1440 min | CCCCC[C@H](O)/C=C/[C@@H]1[C@H]2C/C(=C/CCCC(=O)O)S(=O)(=O)[C@H]2C[C@H]1O [6,9-sulfo-5(Z)prostacyclin] | Antagonist(M) | Constrictor(M) | –
11 | – | > 1440 min | CCCCC[C@H](O)/C=C/[C@@H]1[C@H]2C/C(=C\CCCC(=O)O)[S+]([O-])[C@H]2C[C@H]1O (stereo partly shown) [6,9-sulfoxa-5(E)prostacyclin] | Little activity | Little activity | –
12 | – | > 1440 min | CCCCC[C@H](O)/C=C/[C@@H]1[C@H]2C/C(=C/CCCC(=O)O)[S+]([O-])[C@H]2C[C@H]1O (stereo partly shown) [6,9-sulfoxa-5(Z)prostacyclin] | Little activity | Little activity | –
13 | – | > 180 min | CCCCC[C@H](O)/C=C/[C@@H]1[C@H]2C/C(=C/CCCC(=O)O)S[C@H]2C[C@H]1O [6,9α-Thia-5(Z)prostacyclin] | Very little activity, if any | Very little activity, if any | –
